Data published in ChEMBL document CHEMBL1201862, “PubChem BioAssay data set” (2004).
Calls of active or inactive are those of the source.

Columns and labels:
[1] = target: Type-1 angiotensin II receptor (Homo sapiens, UniProt P30556); assay: AT1 receptor antagonists, dose response, selectivity assay for APJ receptor antagonist project, cell-based, uHTS hits (AID 463214); type: functional;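 note: antagonist potency against angiotensin II stimulated AT1 response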
[2] = target: Beta-galactosidase (Escherichia coli, UniProt Q8VNN2); assay: PubChem AID 485352; type: functional
[3] = target: T1, Corticotropin-releasing factor receptor 2/Corticotropin-releasing factor-binding protein (Homo sapiens, UniProt P24387+Q13324); assay: activators of CRF receptor 2 with binding protein – uHTS hits, confirmation (AID 602473); type: functional; settings: read-out: EC50_Mean
T1 sequence (Q13324 whole entry): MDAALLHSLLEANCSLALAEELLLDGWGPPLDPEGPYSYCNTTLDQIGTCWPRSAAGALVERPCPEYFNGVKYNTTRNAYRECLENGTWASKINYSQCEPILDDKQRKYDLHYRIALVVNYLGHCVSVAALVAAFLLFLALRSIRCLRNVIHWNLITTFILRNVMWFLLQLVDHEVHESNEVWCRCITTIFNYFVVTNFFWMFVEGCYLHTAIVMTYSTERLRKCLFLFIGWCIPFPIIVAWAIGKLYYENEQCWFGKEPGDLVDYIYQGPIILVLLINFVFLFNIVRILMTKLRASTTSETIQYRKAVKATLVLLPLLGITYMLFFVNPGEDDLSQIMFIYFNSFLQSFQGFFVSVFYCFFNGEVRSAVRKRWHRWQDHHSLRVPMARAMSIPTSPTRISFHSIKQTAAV
T1 sequence (P24387 whole entry): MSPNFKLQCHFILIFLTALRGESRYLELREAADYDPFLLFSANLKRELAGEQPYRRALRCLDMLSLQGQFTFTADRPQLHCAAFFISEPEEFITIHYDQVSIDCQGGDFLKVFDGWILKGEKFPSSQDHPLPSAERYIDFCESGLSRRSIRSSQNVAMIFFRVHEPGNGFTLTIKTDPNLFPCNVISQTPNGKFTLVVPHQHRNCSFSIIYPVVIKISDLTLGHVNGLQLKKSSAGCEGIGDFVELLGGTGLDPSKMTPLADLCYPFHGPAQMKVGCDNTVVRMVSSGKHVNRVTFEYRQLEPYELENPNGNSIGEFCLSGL

[4] = target: Dual specificity tyrosine-phosphorylation-regulated kinase 1A (Rattus norvegicus, UniProt Q63470); type: biochemical, Homo sapiens
[5] = target: T2, RNA-binding protein pos-1 (Caenorhabditis elegans, UniProt G5EF15); assay: inhibitors of POS-1/mex-3 RNA binding, dose response, biochemical, fluorescence polarization (AID 1964);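 note: purified POS-1 fused to maltose binding protein made in E. coli; potency of compounds blocking POS-1 binding to fluorescent RNA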
T2 sequence (G5EF15 whole entry): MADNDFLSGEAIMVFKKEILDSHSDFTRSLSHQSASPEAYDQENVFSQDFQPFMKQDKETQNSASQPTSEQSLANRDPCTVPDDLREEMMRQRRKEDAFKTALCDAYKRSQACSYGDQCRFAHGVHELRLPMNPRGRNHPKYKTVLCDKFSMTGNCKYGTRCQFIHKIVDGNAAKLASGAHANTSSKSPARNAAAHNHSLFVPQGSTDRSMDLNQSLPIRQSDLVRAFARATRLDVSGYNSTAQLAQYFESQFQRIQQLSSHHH

[6] = target: T3, Polyadenylate-binding protein 1 (Homo sapiens, UniProt P11940); assay: PABP1 MLLE–PAM2 binding inhibitor potency, dose response, biochemical, fluorescence polarization, FITC-PAM2 peptide (AID 602259); type: functional; settings: read-out: IC50_Mean
[7] = target: T4, Rac GTPase-activating protein 1 (Homo sapiens, UniProt Q9H0H5); assay: MgcRacGAP GTPase-activating activity inhibitors, confirmation, biochemical, ADP Hunter fluorescence, primary and confirmatory (AID 624330); type: functional
T4 sequence (Q9H0H5 whole entry): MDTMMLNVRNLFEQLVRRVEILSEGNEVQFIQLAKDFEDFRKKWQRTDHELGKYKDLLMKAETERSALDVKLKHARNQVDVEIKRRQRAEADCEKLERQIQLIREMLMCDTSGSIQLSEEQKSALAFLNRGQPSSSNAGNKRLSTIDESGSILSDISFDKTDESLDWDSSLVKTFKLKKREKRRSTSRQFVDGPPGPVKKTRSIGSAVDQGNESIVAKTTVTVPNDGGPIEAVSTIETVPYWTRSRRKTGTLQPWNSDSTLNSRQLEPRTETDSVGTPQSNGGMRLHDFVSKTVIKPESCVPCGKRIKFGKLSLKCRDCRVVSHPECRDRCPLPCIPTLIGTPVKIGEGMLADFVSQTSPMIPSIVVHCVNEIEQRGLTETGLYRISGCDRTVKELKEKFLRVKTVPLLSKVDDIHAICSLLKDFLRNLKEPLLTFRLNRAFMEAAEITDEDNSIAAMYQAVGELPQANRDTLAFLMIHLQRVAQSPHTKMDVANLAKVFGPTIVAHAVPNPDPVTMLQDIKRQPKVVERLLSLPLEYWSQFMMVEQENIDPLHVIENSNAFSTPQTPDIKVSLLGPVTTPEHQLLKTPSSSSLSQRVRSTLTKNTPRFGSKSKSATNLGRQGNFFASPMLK

[8] = target: FAD-linked sulfhydryl oxidase ALR (Homo sapiens, UniProt P55789); assay: inhibitors of human ALR sulfhydryl oxidase, dose response, biochemical, H2O2 detection, luminescence, cherry-pick (AID 493248)
[9] = target: Major prion protein (Homo sapiens, UniProt P04156); type: functional, cell-based
[10] = target: T5, Zinc finger protein mex-5 (Caenorhabditis elegans, UniProt Q9XUB2); assay: MEX-5/TCR-2 RNA interaction inhibitors, dose response, biochemical, C. elegans, fluorescence polarization (AID 1960)
T5 sequence (Q9XUB2 whole entry): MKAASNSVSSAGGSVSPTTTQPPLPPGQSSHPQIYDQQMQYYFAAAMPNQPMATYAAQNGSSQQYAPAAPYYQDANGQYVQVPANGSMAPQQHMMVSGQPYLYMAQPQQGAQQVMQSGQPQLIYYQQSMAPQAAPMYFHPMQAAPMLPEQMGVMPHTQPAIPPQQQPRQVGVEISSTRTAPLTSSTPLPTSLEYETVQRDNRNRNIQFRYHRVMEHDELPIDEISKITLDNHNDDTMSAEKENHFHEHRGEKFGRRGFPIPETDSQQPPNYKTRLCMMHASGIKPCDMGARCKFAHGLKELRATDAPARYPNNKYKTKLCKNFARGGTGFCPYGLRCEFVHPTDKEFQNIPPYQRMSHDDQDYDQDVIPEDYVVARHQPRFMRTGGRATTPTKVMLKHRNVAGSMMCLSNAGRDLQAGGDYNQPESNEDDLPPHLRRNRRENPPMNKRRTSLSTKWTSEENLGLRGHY

[11] = target: T1, Corticotropin-releasing factor receptor 2/Corticotropin-releasing factor-binding protein; assay: Dose Response confirmation of uHTS hits for small molecule antagonists of the CRF-binding protein and CRF-R2 receptor complex.; type: functional; settings: read-out: IC50_Mean
[12] = target: T3, Polyadenylate-binding protein 1; assay: PABP1 MLLE–PAM2 interaction inhibitors, dose response, miRNA deadenylation inhibitor project, biochemical, fluorescence polarization, Cy5-PAM2 peptide, secondary (AID 602260); type: functional; settings: read-out: IC50_Mean
[13] = tested on: HEK293; assay: cells; type: functional, cell-based; settings: Homo sapiens
[14] = tested on: HEK293; assay: NOD2 signaling inhibitors in MDP-stimulated cells, cell-based, uHTS, luminescence (AID 2001); type: functional; settings: Homo sapiens
[15] = tested on: H4; assay: Inhibitors of Prion Protein 5' UTR mRNA Measured in Cell-Based System Using Plate Reader - 2078-01_Inhibitor_Dose_DryPowder_Activity. [Related pubchem assays (depositor defined):AID488894]; type: functional; settings: Homo sapiens
[16] = LGR2 antagonists, dose response, cell-based, HEK293, CRE-luciferase reporter, cherry pick, set 2 (AID 743343); type: functional;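 note: transfected cells were stimulated with diluted bursicon conditioned medium after compound addition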
[17] = tested on: HEK293; assay: NOD1 signaling inhibitors, primary screen, cell-based, luminescence, uHTS (AID 1578); type: functional; settings: Homo sapiens
[18] = target: Nucleotide-binding oligomerization domain-containing protein 2 (Homo sapiens, UniProt Q9HC29); assay: NOD2 signaling inhibitors, cell-based, luminescence, uHTS, HEK293 (AID 1566); type: functional
[19] = MC4R antagonists, dose response, counter-screen for LGR2 antagonist project, cell-based, plate reader, cherry pick (AID 743444); type: functional;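 note: transfected HEK 293 cells stimulated with alpha-MSH peptide; potency of inhibitors of the alpha-MSH evoked signal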
[20] = tested on: HEK293; assay: cells; type: functional, cell-based; settings: Homo sapiens; remark: listed apart in the source
[21] = tested on: HEK293; assay: cells; type: functional, cell-based; settings: Homo sapiens; remark: listed apart in the source
[22] = target: T6, Small ubiquitin-related modifier 1 (Homo sapiens, UniProt P63165); assay: inhibitors of SUMO1 peptide binding, dose response, biochemical, fluorescence polarization, uHTS hits (AID 624382); type: functional; settings: read-out: IC50_Mean
[23] = target: Glutathione-S-transferase (Schistosoma japonicum, UniProt Q26513); assay: biotin-GST/anti-GST TR-FRET signal inhibitors, dose response, artefact control for Vif-APOBEC3G degradation inhibitor project, biochemical (AID 1117362); type: functional
[24] = tested on: HeLa; assay: HeLa cell cytotoxicity, dose response, cytotoxicity control, 24 h, cherry-picked samples (AID 504726); type: functional, cell-based; settings: Homo sapiens;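 note: potency for cytotoxicity as loss of luminescence signal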
[25] = target: Induced myeloid leukemia cell differentiation protein Mcl-1 (Homo sapiens, UniProt Q07820); type: functional
[26] = target: Genome polyprotein (dengue virus type 2, UniProt P29990); assay: Dengue-2 NS5 methyltransferase inhibitors, primary screen, biochemical, confirmation dose response (AID 588689); type: functional
[27] = target: ORF 73 (Human herpesvirus 8, UniProt O40947); assay: inhibitors of C-LANA binding to LBS DNA, dose response, biochemical, fluorescence polarization, cherry-picked samples (AID 504725); design: species or system Human gammaherpesvirus 8;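 note: fluorescence polarization of a labeled DNA duplex reporting LANA DNA binding; potency is for inhibitors that block LANA binding to the DNA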
[28] = target: T6, Small ubiquitin-related modifier 1; assay: inhibitors of SUMO1 partner interactions, dose response, biochemical, FRET (AID 624383); type: functional; settings: read-out: IC50_Mean
[29] = target: Beta-adrenergic receptor kinase 1 (Homo sapiens, UniProt P25098); assay: aptamer displacement from bead-bound GRK2 – biochemical, cherry pick 1, bead flow cytometry, dose response (AID 504500)
[30] = target: Cytochrome P450 3A4 (Homo sapiens, UniProt P08684); settings: Potency;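 note: confirmatory qHTS run detecting inhibitors and substrates of CYP3A4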
[31] = target: Voltage-gated inwardly rectifying potassium channel KCNH2 (Homo sapiens, UniProt Q12809); settings: Potency;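 note: confirmatory quantitative high-throughput screen measuring inhibition of hERG channel activity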
[32] = tested on: INS1; assay: protection from cytokine-induced mitochondrial depolarization, dose response, cell-based, INS-1E, JC-1 fluorescence ratio, dry powder (AID 488931); type: functional; settings: Rattus norvegicus
[33] = target: Luciferin 4-monooxygenase (Photuris pensylvanica, UniProt Q27757); assay: firefly luciferase enzyme inhibitors, dose response, counter-screen for HSF-1 reporter inhibitor project, biochemical, Cell Titer Glo, luminescence, cherry-picks (AID 588847)
[34] = HepG2 cell cytotoxicity, dose response, cytotoxicity control, plate reader, cherry-pick, antagonist series (AID 743416); type: functional, cell-based
[35] = A549 cell cytotoxicity, dose response, cytotoxicity control, plate reader, cherry-pick, antagonist series (AID 743412); type: functional, cell-based
[36] = inhibitors of SNCA 5'UTR-driven reporter translation, confirmation, H4 neuroglioma cells, luminescence (AID 1988); type: functional, cell-based
[37] = HEK293 cell cytotoxicity, dose response, cytotoxicity control, plate reader, cherry-picked samples (AID 743446); type: functional, cell-based

Cc1cc(C(=O)NNc2ccc(C)c(C)c2)no1
IC50 [1]: 8.58 µM (active)
EC50 [2]: > 40 µM (inactive)

S=c1[nH]c2ccccc2n2c(=S)[nH]nc12
EC50 [3]: > 53 µM (inactive)
AC50 [4]: 8 µM (active)
EC50 [5]: 10.3 µM (inconclusive)
IC50 [6]: > 66 µM (inactive)
IC50 [7]: 56.5 µM (active)
AC50 [8]: 2.35 µM (active)
IC50 [9]: > 1.7 µM (active)
EC50 [10]: 6.1 µM (active)
IC50 [11]: > 47.1 µM (inactive)
IC50 [12]: > 66 µM (inactive)

COc1cc(NC(=O)c2cccs2)c(C(=O)OCC(=O)c2cc(C)n(-c3ccccc3)c2C)cc1OC
IC50 [13]: > 20 µM (inactive)
IC50 [14]: > 20 µM (inactive)
AC50 [15]: 2.17 µM (active)
AC50 [16]: 9.95 µM (active)
EC50 [17]: > 20 µM (inactive)
EC50 [18]: 7.27 µM (active)
AC50 [19]: 3.07 µM (active)
IC50 [20]: > 20 µM (inactive)
IC50 [21]: 1.19 µM (active)

O=C(O)c1cccc2c1NC(C(=O)O)C1CC(Sc3ccccc3[N+](=O)[O-])C(Cl)C21 (centres undefined)
IC50 [22]: > 66.6 µM (inactive)
IC50 [23]: > 100 µM (active)
AC50 [24]: 179 µM (active)
IC50 [25]: 2.17 µM (active)
IC50 [26]: 38.9 µM (active)
AC50 [27]: 59.6 µM (active)
IC50 [28]: 5.21 µM (active)
EC50 [29]: 19.4 µM (inactive)

CCOP(=S)(OCC)SCCSCC [DISULFOTON]
AC50 [30]: 20 µM (inconclusive)
AC50 [31]: 1 µM (inconclusive)

COc1ccc(S(=O)(=O)N(C)C[C@@H]2Oc3c(NC(=O)Nc4c(C)noc4C)cccc3C(=O)N([C@@H](C)CO)C[C@H]2C)cc1
AC50 [32]: 28 µM (active)

N#CCCCC#Cc1ccc2c(c1)COc1c3ccccc3nn1-2
AC50 [33]: 1.76 µM (active)
AC50 [16]: 6.24 µM (active)
AC50 [34]: > 52 µM (inactive)
AC50 [19]: 7.77 µM (active)
AC50 [35]: > 52 µM (inactive)
EC50 [36]: 10.1 µM (inconclusive)
AC50 [37]: > 52 µM (inactive)
